Test results: US7932262B2 (Novartis AG, priority 2006, dated 2011)
Read-outs that look alike come from different tables or passages of the source.

How the values were obtained:
PDK1 kinase = target: T1, PDK1 kinase (Homo sapiens, UniProt O15530); assay: PDK1 Kinase Alpha Screen Assay; type: biochemical; settings: PDK1 Kinase Alpha Screen Assay; read-out: PDK1 IC50
T1 sequence (O15530 1-556): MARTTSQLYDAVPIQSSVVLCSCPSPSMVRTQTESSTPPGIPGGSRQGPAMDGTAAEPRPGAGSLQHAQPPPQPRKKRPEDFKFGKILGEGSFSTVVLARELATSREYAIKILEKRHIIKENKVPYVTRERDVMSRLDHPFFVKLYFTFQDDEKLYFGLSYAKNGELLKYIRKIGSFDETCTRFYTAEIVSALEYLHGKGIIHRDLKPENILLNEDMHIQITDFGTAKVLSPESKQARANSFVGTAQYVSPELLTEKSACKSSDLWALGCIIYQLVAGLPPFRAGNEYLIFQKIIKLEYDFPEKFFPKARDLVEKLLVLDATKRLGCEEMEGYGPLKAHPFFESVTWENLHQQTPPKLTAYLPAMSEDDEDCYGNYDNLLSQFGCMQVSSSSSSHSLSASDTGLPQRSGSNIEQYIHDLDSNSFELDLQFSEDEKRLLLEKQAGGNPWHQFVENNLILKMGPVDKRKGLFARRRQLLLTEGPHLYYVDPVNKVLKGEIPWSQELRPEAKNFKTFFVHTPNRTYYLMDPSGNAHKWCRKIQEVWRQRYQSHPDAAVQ
Method in brief: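 AlphaScreen readout: phospho-peptide captured by phospho-(Ser/Thr) PKA substrate antibody (0.3 mg/ml) on protein A acceptor beads, biotin peptide on streptavidin donor beads (25 μg/ml each), overnight at room temperature. Kinase step used 50 nM PDK1-4 peptide, 10 uM ATP, 3-18 hours.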

A2780 cells = assay: Cell Proliferation Assay (Cell Titer Glo), A2780; type: cell-based; settings: Homo sapiens; cell proliferation, A2780 cells; read-out: CPEC50 A2780
Method in brief: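 Following a 3-day compound exposure (37° C., 5% CO2) of A2780 or PC3MM cells plated at 1000 per well, viability was measured by Cell Titer Glo luminescence in fresh medium, read 10 min after reagent addition.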

PC3MM cells = assay: Cell Proliferation Assay (Cell Titer Glo), PC3MM; type: cell-based; settings: read-out: CPEC50 PC3MM
Protocol: IV. Cell Proliferation Assay Protocol:
A2780, PC-3, or PC3MM cells were seeded at 1000 cells/well in 100 μL/well (10.000 cells/mL) growth media in 96-well plates. Cells were allowed to adhere to the bottom of plates for 3-5 hours in a 37° C. 5% CO2 incubator. Compounds were dissolved in DMSO and then transferred to the cell plates. The cells were incubated with the compounds for 3 days in a 37° C. 5% CO2 incubator. The growth medium containing the compounds was then removed from the cells and fresh medium was added, followed by 100 μL of Cell Titer Glo assay reagent (Promega). This mixture was shaken for 1 minute and then incubated without shaking for 10 minutes. Activity determinations for the compounds were made by detection on a Trilux Instrument.

[1] = cell proliferation, PC3MM cells

NS(=O)(=O)c1ccc(Nc2ncc3cccc(C(=O)NCCN4CCCC4)c3n2)cc1 [Compound 762, N-(2-(pyrrolidin-1-yl)ethyl)-2-(4-sulfamoylphenylamino)quinazoline-8-carboxamide]
IC50 (PDK1 kinase): < 5 µM | EC50 (A2780 cells): < 5 µM | EC50 (PC3MM cells; [1]): 5 to 10 µM

NS(=O)(=O)c1ccc(Nc2ncc3cccc(C(=O)N4CCS(=O)(=O)CC4)c3n2)cc1 [Compound 770]
IC50 (PDK1 kinase): 10 to 25 µM | EC50 (A2780 cells): 5 to 10 µM | EC50 (PC3MM cells; [1]): 10 to 25 µM

NS(=O)(=O)c1ccc(Nc2ncc3cccc(C(=O)N[C@@H]4CN5CCC4CC5)c3n2)cc1 [Compound 809, (S)-N-(quinuclidin-3-yl)-2-(4-sulfamoylphenylamino)quinazoline-8-carboxamide]
IC50 (PDK1 kinase): < 5 µM | EC50 (A2780 cells): 5 to 10 µM | EC50 (PC3MM cells; [1]): < 5 µM

Nc1ncc(-c2cccc3cnc(Nc4ccc(S(N)(=O)=O)cc4)nc23)cn1 [Compound 823, 4-(8-(2-aminopyrimidin-5-yl)quinazolin-2-ylamino)benzenesulfonamide]
IC50 (PDK1 kinase): < 5 µM | EC50 (A2780 cells): < 5 µM | EC50 (PC3MM cells; [1]): < 5 µM

NS(=O)(=O)c1ccc(Nc2ncc3cccc(C(=O)N4CCNC(=O)C4)c3n2)cc1 [Compound 808, 4-(8-(3-oxopiperazine-1-carbonyl)quinazolin-2-ylamino)benzenesulfonamide]
IC50 (PDK1 kinase): < 5 µM | EC50 (A2780 cells): 5 to 10 µM | EC50 (PC3MM cells; [1]): < 5 µM

NS(=O)(=O)c1ccc(Nc2ncc3cccc(-c4ccc(N5CCCC5)nc4)c3n2)cc1 [Compound 832, 4-(8-(6-(pyrrolidin-1-yl)pyridin-3-yl)quinazolin-2-ylamino)benzenesulfonamide]
IC50 (PDK1 kinase): < 5 µM | EC50 (A2780 cells): < 5 µM | EC50 (PC3MM cells; [1]): < 5 µM

NS(=O)(=O)c1ccc(Nc2ncc3cccc(-c4ccc(N5CCOCC5)nc4)c3n2)cc1 [Compound 826, 4-(8-(6-morpholinopyridin-3-yl)quinazolin-2-ylamino)benzenesulfonamide]
IC50 (PDK1 kinase): < 5 µM | EC50 (A2780 cells): < 5 µM | EC50 (PC3MM cells; [1]): < 5 µM

COc1ncc(-c2ccc3cnc(Nc4ccc(S(N)(=O)=O)cc4)nc3c2)cn1 [Compound 814, 4-(7-(2-methoxypyrimidin-5-yl)quinazolin-2-ylamino)benzenesulfonamide]
IC50 (PDK1 kinase): < 5 µM | EC50 (A2780 cells): < 5 µM | EC50 (PC3MM cells; [1]): < 5 µM

CNC(=O)c1ccc(Nc2ncc3cccc(OC4CCN(C(C)C)CC4)c3n2)cc1 [Compound 796, 4-(8-(1-isopropylpiperidin-4-yloxy)quinazolin-2-ylamino)-N-methylbenzamide]
IC50 (PDK1 kinase): < 5 µM | EC50 (A2780 cells): < 5 µM | EC50 (PC3MM cells; [1]): < 5 µM

CC(C)Nc1ccc(-c2cccc3cnc(Nc4ccc(S(N)(=O)=O)cc4)nc23)cn1 [Compound 831, 4-(8-(6-(isopropylamino)pyridin-3-yl)quinazolin-2-ylamino)benzenesulfonamide]
IC50 (PDK1 kinase): < 5 µM | EC50 (A2780 cells): < 5 µM | EC50 (PC3MM cells; [1]): < 5 µM

CC(C)NS(=O)(=O)c1cccc(Nc2ncc3cccc(OC4CCNCC4)c3n2)c1 [Compound 776, N-isopropyl-3-(8-(piperidin-4-yloxy)quinazolin-2-ylamino)benzenesulfonamide]
IC50 (PDK1 kinase): < 5 µM | EC50 (A2780 cells): < 5 µM | EC50 (PC3MM cells; [1]): < 5 µM

Cc1nn(C)c(C)c1-c1ccc2cnc(Nc3ccc(S(N)(=O)=O)cc3)nc2c1 [Compound 848, 4-(7-(1,3,5-trimethyl-1H-pyrazol-4-yl)quinazolin-2-ylamino)benzenesulfonamide]
IC50 (PDK1 kinase): < 5 µM | EC50 (A2780 cells): < 5 µM | EC50 (PC3MM cells; [1]): < 5 µM

NC(=O)c1cccc(-c2ccc3cnc(Nc4ccc(S(N)(=O)=O)cc4)nc3c2)c1 [Compound 782]
IC50 (PDK1 kinase): < 5 µM | EC50 (A2780 cells): 5 to 10 µM | EC50 (PC3MM cells; [1]): < 5 µM

NS(=O)(=O)c1ccc(Nc2ncc3cccc(C(=O)NC4CCNCC4)c3n2)cc1 [Compound 805, N-(piperidin-4-yl)-2-(4-sulfamoylphenylamino)quinazoline-8-carboxamide]
IC50 (PDK1 kinase): < 5 µM | EC50 (A2780 cells): 5 to 10 µM | EC50 (PC3MM cells; [1]): < 5 µM

NS(=O)(=O)c1ccc(Nc2ncc3ccc(-c4ccc5c(c4)CCNC5=O)cc3n2)cc1 [Compound 840, 4-(7-(1-oxo-1,2,3,4-tetrahydroisoquinolin-6-yl)quinazolin-2-ylamino)benzenesulfonamide]
IC50 (PDK1 kinase): < 5 µM | EC50 (A2780 cells): 5 to 10 µM | EC50 (PC3MM cells; [1]): < 5 µM

O=S(=O)(NC1CC1)c1cccc(Nc2ncc3cccc(OC4CCNCC4)c3n2)c1 [Compound 812, N-cyclopropyl-3-(8-(piperidin-4-yloxy)quinazolin-2-ylamino)benzenesulfonamide]
IC50 (PDK1 kinase): < 5 µM | EC50 (A2780 cells): < 5 µM | EC50 (PC3MM cells; [1]): < 5 µM

CCN1CCC(Oc2cccc3cnc(Nc4ccc(S(N)(=O)=O)cc4)nc23)CC1 [Compound 817, 4-(8-(1-ethylpiperidin-4-yloxy)quinazolin-2-ylamino)benzenesulfonamide]
IC50 (PDK1 kinase): < 5 µM | EC50 (A2780 cells): < 5 µM | EC50 (PC3MM cells; [1]): < 5 µM

CN1CCN(C(=O)c2ccc(-c3cccc4cnc(Nc5ccc(S(N)(=O)=O)cc5)nc34)cc2)CC1 [Compound 824, 4-(8-(4-(4-methylpiperazine-1-carbonyl)phenyl)quinazolin-2-ylamino)benzenesulfonamide]
IC50 (PDK1 kinase): < 5 µM | EC50 (A2780 cells): < 5 µM | EC50 (PC3MM cells; [1]): < 5 µM

NC(=O)c1ccc(-c2cccc3cnc(Nc4ccc(S(N)(=O)=O)cc4)nc23)cc1 [Compound 740, 4-(2-(4-sulfamoylphenylamino)quinazolin-8-yl)benzamide]
IC50 (PDK1 kinase): < 5 µM | EC50 (A2780 cells): 5 to 10 µM | EC50 (PC3MM cells; [1]): < 5 µM

NS(=O)(=O)c1ccc(Nc2ncc3cccc(-c4cn[nH]c4)c3n2)cc1 [Compound 751, 4-(8-(1H-pyrazol-yl)quinazolin-2-ylamino)benzenesulfonamide]
IC50 (PDK1 kinase): < 5 µM | EC50 (A2780 cells): < 5 µM | EC50 (PC3MM cells; [1]): < 5 µM

NS(=O)(=O)c1ccc(Nc2ncc3cccc(-c4cccnc4)c3n2)cc1 [Compound 742, 4-(8-(pyridin-3-yl)quinazolin-2-ylamino)benzenesulfonamide]
IC50 (PDK1 kinase): < 5 µM | EC50 (A2780 cells): 5 to 10 µM | EC50 (PC3MM cells; [1]): < 5 µM

NC(=O)c1ccc(-c2ccc3cnc(Nc4ccc(S(N)(=O)=O)cc4)nc3c2)cc1F [Compound 759, 2-fluoro-4-(2-(4-sulfamoylphenylamino)quinazolin-7-yl)benzamide]
IC50 (PDK1 kinase): < 5 µM | EC50 (A2780 cells): 5 to 10 µM | EC50 (PC3MM cells; [1]): < 5 µM

NS(=O)(=O)c1ccc(Nc2ncc3ccc(-c4cccnc4)cc3n2)cc1 [Compound 793, 4-(7-(pyridin-3-yl)quinazolin-2-ylamlno)benzenesulfonamide]
IC50 (PDK1 kinase): < 5 µM | EC50 (A2780 cells): < 5 µM | EC50 (PC3MM cells; [1]): < 5 µM

NS(=O)(=O)c1ccc(Nc2ncc3cccc(C(=O)NC4CCCNC4)c3n2)cc1 (centres unmarked) [Compound 803, N-(piperidin-3-yl)-2-(4-sulfamoylphenylamino)quinazoline-8-carboxamide]
IC50 (PDK1 kinase): < 5 µM | EC50 (A2780 cells): 5 to 10 µM | EC50 (PC3MM cells; [1]): < 5 µM

Nc1ccc(-c2ccc3cnc(Nc4ccc(S(N)(=O)=O)cc4)nc3c2)cn1 [Compound 789, 4-(7-(6-aminopyridin-3-yl)quinazolin-2-ylamino)benzenesulfonamide]
IC50 (PDK1 kinase): < 5 µM | EC50 (A2780 cells): < 5 µM | EC50 (PC3MM cells; [1]): < 5 µM

NS(=O)(=O)c1ccc(Nc2ncc3cccc(O[C@@H]4CCNC4)c3n2)cc1 [Compound 726, (R)-4-(8-(pyrrolidin-3-yloxy)quinazolin-2-ylamino)benzenesulfonamide]
IC50 (PDK1 kinase): < 5 µM | EC50 (A2780 cells): < 5 µM | EC50 (PC3MM cells; [1]): < 5 µM

CN(C)[C@H]1CCN(C(=O)c2cccc3cnc(Nc4ccc(S(N)(=O)=O)cc4)nc23)C1 [Compound 806, (S)-4-(8-(3-(dimethylamino)pyrrolidine-1-carbonyl)quinazolin-2-ylamino)benzenesulfonamide]
IC50 (PDK1 kinase): < 5 µM | EC50 (A2780 cells): 5 to 10 µM | EC50 (PC3MM cells; [1]): < 5 µM

CCN1CC(Oc2cccc3cnc(Nc4ccc(S(N)(=O)=O)cc4)nc23)C1 [Compound 841, 4-(8-(1-ethylazetidin-3-yloxy)quinazolin-2-ylamino)benzenesulfonamide]
IC50 (PDK1 kinase): < 5 µM | EC50 (A2780 cells): < 5 µM | EC50 (PC3MM cells; [1]): < 5 µM

NC(=O)c1cc(Nc2ncc3cc(Br)cc(OC4CCNCC4)c3n2)cc(N2CCOCC2)c1 [Compound 669, 3-(6-bromo-8-(piperidin-4-yloxy)quinazolin-2-ylamino)-5-morpholinobenzamide]
IC50 (PDK1 kinase): < 5 µM | EC50 (PC3MM cells; Cell Proliferation Assay, PC3MM): 5 to 10 µM
